# Reference: US11135340B2, “Compositions and methods for preparation of composite polymer coatings on medical implants, and their use for co-delivery of multiple antimicrobial agents” (THE JOHNS HOPKINS UNIVERSITY, priority 2016, dated 2021)
# Like-named read-outs stand apart in the source and are kept apart here.
# Tests used:
# [1] = tested on: S. aureus bioluminescent strain Xen36; experiment: Mouse model of prosthetic joint infection: in vivo bioluminescence imaging and CFU; set-up: species or system mice; details: intravenous prophylaxis 110 mg/kg at −1 and 16 hours
# [2] = tested on: XEN36; experiment: MIC of XEN36 for each antibiotic; format: cell-based, Staphylococcus aureus; details: S. aureus XEN36
# [3] = In vitro release of antibiotics from composite coatings on titanium K-wire implants; format: physicochemical; details: for release kinetics after storage: coated pins stored 6 weeks room temperature, 6 weeks −20° C. or 8 months frozen, vs fresh; for Day 1 release of Gentamicin: of total loading
# Protocol: The release rate of the polymer composite film was measured by HPLC. Drug release studies were conducted using coated pins created with the same loading parameters as those used for later in vivo testing (10% (w/w) drug combinations) electrospun for 60 seconds at injection rates of 0.5 mL/h from each needle. Release rate of antibiotics from the composite polymer coating was characterized by placing coated pins in 200 μL pH 7.4 PBS buffer and incubating at 37° C. in an aluminum film-covered incubator to prevent possible light-induced drug degradation. Release media was changed at fixed time points over a period of two weeks and stored in a −20° C. freezer until analysis. Drug concentrations in release media for each day were determined via reverse-phase HPLC using a C-18 column in an Alliance HPLC system and Waters 2996 PDA detector. The mobile phase was a mixture of acetonitrile and water both mixed with 0.1% TFA acid, which was run at a gradient from (15%/85%) to (40%/60%) for a total runtime of 15 minutes per sample for the elution of Van/Rif and Lin/Rif drug loading groups. Elution of the Dap/Rif loading group was conducted using a mobile phase of (49%/51%) of acetonitrile and water both mixed with 0.1% TFA acid for a total run time of 11 minutes per sample. Concentrations of the drugs were quantified using wavelengths of 343 nm for Rif, 254 nm for Lin, 280 nm for Van and 223 nm for Dap using prepared standard curves for all three drugs. […] Quantification was performed through the derivatization of Gentamicin with ninhydrin at 95° C. for 15 minutes and detection with a Biotek Synergy2 plate reader.
# Drug release studies were conducted using coated pins created with the same loading parameters as detailed above. Release kinetics of antibiotics from the composite coating were characterized by placing coated pins in 200 μL of phosphate buffer saline (PBS, pH 7.4) at 37° C. Release media was changed daily over a period of two weeks and stored at −20° C. until analysis. Drug concentrations in release media were measured on days 1, 2, 3, 5, 7, 10 and 14 using a Waters Alliance 2690 HPLC system (Waters Corporation, Milford, Mass.) equipped with an Accucore RP-MS C18 column (100 mm×2.1 mm; Thermo Fisher Scientific) and a Waters 2996 PDA detector. The elution was carried out with a mobile phase of water and acetonitrile both mixed with 0.1% TFA at a flow rate of 1 mL/min at ambient temperature using a linear gradient elution program of 85% water to […] in 15 minutes. Concentrations of the drugs were quantified using wavelengths for Van (280 nm), Lin (254 nm), Dap (224 nm) and Rif (263 nm).
# [4] = tested on: S. aureus; experiment: In vitro zone of inhibition assay of coated K-wires; format: cell-based, Staphylococcus aureus; details: any of the storage conditions vs freshly prepared coatings
# Excerpt: A zone of inhibition assay was used as an additional assay to evaluate the in vitro release of antibiotic(s) from the composite coating. Tryptic soy agar bacterial plates were inoculated with S. aureus bacteria cells to yield a bacterial lawn after overnight culture. After bacterial inoculation and before culturing the plates, two identical titanium K-wires loaded with either 10 w/w % Lin, 10 w/w % Van, or 10 w/w % Dap alone, or in combination with Rif were placed in two separate areas on the plate. After culturing the plates at 37° C. for 24 hours, the antimicrobial activity of the eluded antibiotic(s) into the agar was measured as a zone of inhibition (diameter [mm]) of the bacterial growth around the K-wire.
# Long-term efficacy of the antimicrobial activity was tested by storing electrospun pins at room temperature for 6 weeks, −20° C. for 6 weeks, and −80° C. for 8 months. Coated pins were protected from light during storage. These pins were then used in the same zone of inhibition assay as described hereinabove. These antimicrobial results were further confirmed with a two-week in vitro release study to determine release kinetics after storage.
# Tryptic soy agar (TSA) bacterial plates were inoculated with S. aureus to yield a bacterial lawn after overnight culture. Before culturing the plates, two titanium K-wires each loaded with the same combination of antibiotics from each set were placed in two separate areas on the plate. After culturing at 37° C. for 24 hours, the zone of inhibition (ZOI) (diameter/mm) of bacterial growth were measured.
# [5] = In vivo release kinetics of ICG from PCL coating by fluorescence imaging; set-up: species or system mice; details: ICG loaded PCL coating on K-wire in mouse femur
# Excerpt: FIG. 9A and FIG. 9B show in vivo release kinetics as measured by PCL coatings impregnated with a near-infrared (NIR) fluorescent dye Indocyanine green (ICG) as a surrogate for the antibiotic loaded coatings.
# The near-infrared (NIR) fluorescence imaging dye indocyanine green (ICG) was used as a surrogate model for drug loading and release in an established mouse model (described in Example 4) to monitor the in vivo release kinetics from PCL coating (FIG. 9A and FIG. 9B). ICG loaded PCL was coated onto titanium K-wire (described in Example 1). The implants were surgically placed in a retrograde fashion with 1 mm protruding into the joint space of mice. The release of ICG was measured by its fluorescence intensity at different time points.
# [6] = Staphylococcus aureus, read-out: MIC
compound,measurement,setting,value
"CN[C@H](CC(C)C)C(=O)N[C@H]1C(=O)N[C@@H](CC(N)=O)C(=O)N[C@H]2C(=O)N[C@H]3C(=O)N[C@H](C(=O)N[C@H](C(=O)O)c4cc(O)cc(O)c4-c4cc3ccc4O)[C@H](O)c3ccc(c(Cl)c3)Oc3cc2cc(c3O[C@@H]2O[C@H](CO)[C@@H](O)[C@H](O)[C@H]2O[C@H]2C[C@](C)(N)[C@H](O)[C@H](C)O2)Oc2ccc(cc2Cl)[C@H]1O [Van, vancomycin]",BLI signals,[1],decreased BLI signals
same,clearance of infection (CFU from bone/joint tissue and implants),[1],the infection was not cleared
same,MIC,[2]; [6],0.5 µg/mL
same,release kinetics after storage,[3],no difference in the release kinetics
same,antimicrobial activity (zone of inhibition) after storage,[4],no significant loss of antimicrobial activity
Gentamicin,MIC,[2],roughly 10 μg/mL
same,Gentamicin release profile,[3]; 50:50 PLGA,sustained release
same,Gentamicin release profile,[3]; 75:25 PLGA,only a burst release
same,release of Gentamicin above the MIC,[3]; controlled by polymer choice (PLA:PGA ratio of PLGA),2 to 14 days
same,Day 1 release of Gentamicin,[3]; PLGA nanofibers alone,80%
same,Day 1 release of Gentamicin,[3]; PLGA nanofibers embedded in PCL film layer,less than 45%
same,Gentamicin MIC concentration sustained,"[3]; release from PLGA nanofibers of composite coating, FIG. 11A",up to 14 days
"CCCCCCCCCC(=O)N[C@@H](Cc1c[nH]c2ccccc12)C(=O)N[C@H](CC(N)=O)C(=O)N[C@@H](CC(=O)O)C(=O)N[C@@H]1C(=O)NCC(=O)N[C@@H](CCCN)C(=O)N[C@@H](CC(=O)O)C(=O)N[C@H](C)C(=O)N[C@@H](CC(=O)O)C(=O)NCC(=O)N[C@H](CO)C(=O)N[C@@H]([C@H](C)CC(=O)O)C(=O)N[C@@H](CC(=O)c2ccccc2N)C(=O)O[C@@H]1C [Dap, daptomycin]",MIC,[2]; [6],0.25 µg/mL
same,release kinetics after storage,[3],no difference in the release kinetics
same,antimicrobial activity (zone of inhibition) after storage,[4],no significant loss of antimicrobial activity
"CC(=O)NC[C@H]1CN(c2ccc(N3CCOCC3)c(F)c2)C(=O)O1 [Lin, linezolid]",MIC,[2]; [6],2 µg/mL
same,release kinetics after storage,[3],no difference in the release kinetics
same,antimicrobial activity (zone of inhibition) after storage,[4],no significant loss of antimicrobial activity
"CC1(C)C(/C=C/C=C/C=C/C=C2\N(CCCCS(=O)(=O)O)c3ccc4ccccc4c3C2(C)C)=[N+](CCCCS(=O)(=O)[O-])c2ccc3ccccc3c21 [ICG, indocyanine green]",duration of ICG release,[5],over two weeks
same,peak dissolution of ICG,[5],1 days
"CO[C@H]1/C=C/O[C@@]2(C)Oc3c(C)c(O)c4c(O)c(c(/C=N/N5CCN(C)CC5)c(O)c4c3C2=O)NC(=O)/C(C)=C\C=C\[C@H](C)[C@H](O)[C@@H](C)[C@@H](O)[C@@H](C)[C@H](OC(C)=O)[C@@H]1C [Rif, Rifampin]",MIC,[2]; [6],0.5 µg/mL
same,release of Rif out of the composite film coating after storage (reduced or not),[3]; pins stored at −20° C.,not when the pins were stored at −20 °C
same,release of Rif out of the composite film coating after storage,[3]; storage at room temperature for six weeks,reduced
same,Rif remains above the MIC,[3]; tuned by PCL molecular weight or PCL layer thickness,2 to 5 days
same,antimicrobial activity (zone of inhibition) after storage,[4],no significant loss of antimicrobial activity
